Assay results from US6245791A (Aventis Pharma S.A., priority 1998, dated 2001).

System: glutamate uptake in synaptosomes of rat cerebellum
Experimental: The increase in glutamate uptake is evaluated in a suspension of synaptosomes prepared from rat cerebellar cells.
The synaptosomes were prepared according to a modification of the method described by Robinson, M. B., et al., (Brain Res., 544: 196-202, 1991). The tissues of cerebellum or of other regions of the brain of male rats of the Sprague-Dawley breed are homogenized in a sucrose solution (0.32 M) at 4° C. and then centrifuged at 800 g for 10 minutes. The supernatant is then recentrifuged at 20,000 g for 20 minutes. The centrifugation pellet obtained is resuspended in an identical sucrose solution and then centrifuged again at 20,000 g for 20 minutes. The synaptosomes are contained in this second centrifugation pellet. They are suspended and used immediately for measuring glutamate uptake. This is monitored with the aid of tritium-labelled glutamate ([^3 H]glutamate) diluted in a solution of nonradioactive glutamate. After 3 minutes of incubation at 37° C., the synaptosomes are separated from the incubation medium by filtration. […] This radioactivity is proportional to the glutamate uptake. The results are expressed as specific uptake, that is to say the uptake which depends on the presence of sodium ions in the incubation medium. It can be distinguished from the nonspecific uptake which corresponds to the radioactivity measured after equimolar replacement of sodium chloride in the incubation medium with choline chloride. The specific uptake corresponds to the total radioactivity minus the radioactivity measured in the presence of choline chloride.
The data are the mean values±SEM of n=8 independent observations.

In the case of Nc1nc2ccc(OC(F)(F)F)cc2s1 [riluzole, 2-amino-6-trifluoromethoxybenzothiazole], the “dependence of the increase in glutamate uptake on the age of the rats” value (cerebellum, postnatal period to adult age, stable after about 10 weeks) is reported as “increases with the age of the rats”, the “uptake of radioactive glutamate (result in words)” value (rat cerebellar synaptosomes, increasing concentrations of riluzole (FIG. 1)) is reported as “increased in a concentration-dependent manner” and the “maximum increase in glutamate uptake” value (rat cerebellar synaptosomes, specific uptake, n=8, 3 min) is reported as ~40 % of the control values.
